Measured values taken from US20010005511A1, “Insect control by insect growth regulators broadcast by volatilization” (Wellmark International, priority 1999, published 2001).
Several values for one entry are separate records, joined by “and”; a condition that tells them apart may be missing. Equal entries are not always repeated. Where two headings read alike, the source gives them in different places.

Assays:
fleas [1] = assay: Residual flea control on carpet circles by S-methoprene volatilized from a 60-watt light bulb in a residential living room; assay type: in vivo, Ctenocephalides felis; conditions: for Number of Adult Fleas Emerging From 100 Eggs, individual test samples: 0.1 g (Solution B), 4 h exposure, 6.1 m from bulb, samples 1-6; for Percent Control (Arithmetic) / Percent Control (Geometric): relative to control samples
Experimental: This example is a further illustration of the efficacy of S-methoprene volatilized by heating from an incandescent light bulb in the control of fleas. The test was performed in a conventional residential living room with a floor area of 21.5 m^2 (231 ft^2). A single standard 60-watt incandescent bulb was used as the heat source, with a felt ring containing 0.1 g of S-methoprene (using Solution B of Example 1). The temperature of the bulb surface at the location of the felt ring was approximately 200° F. (93° C.). The exposure time (the length of time that the lamp containing the bulb was turned on) was four hours. The carpet circles were placed twenty feet (6.1 m) from the bulb.
After exposure to the volatilized S-methoprene, the carpet circles were each aged (allowed to rest without additional exposure) for 1, 2, 3, or 4 months. They were then challenged by infestation with flea eggs in the same manner as described above in Example 1. The results, expressed in terms of the number of adult fleas emerging after 35 days, are listed in Table II, together with corresponding results from control samples.

[2] = system: fleas (Ctenocephalides felis); assay: Flea control on carpet circles by S-methoprene volatilized from a 100-watt light bulb in a test room; assay type: in vivo; conditions: for Efficacy at Indicated Distance from Source, 35-Day Residual Effect: carpet rested 35 days before infestation
Experimental: This example illustrates the efficacy of S-methoprene volatilized by heating from an incandescent light bulb in the control of fleas (Ctenocephalides felis).
Testing was performed in a test room measuring 8.5 m (28 ft.) (length)×6.1 m (20 ft) (width)×4.3 m (14 ft.) (height) with a movable partition to reduce the room to the desired size. For this series of tests, the partition was placed in various positions such that the horizontal area of the room was variously:
A single standard 100-watt incandescent light bulb was used as the heating source, and a felt ring that was cut to fit on the top of the light bulb was used as the support for the liquid S-methoprene solution. Three liquid S-methoprene solutions were used as follows:
Solution A: S-methoprene and IRGANOX® L57 (in a weight ratio of 50:1), to achieve a solution of […] S-methoprene by weight. IRGANOX ® L57 (Ciba-Geigy Corp., Hawthorne, N.Y., USA) is a liquid aminic antioxidant in the form of an alkylated diphenylamine. No solvents were used.
Solution B: S-methoprene and BHT (in a weight ratio of 50:1), dissolved in a mixture of 1-methoxy-2-propanol and deionized water (in a weight ratio of 84:16) to achieve a solution of 5.2% S-methoprene by weight.
Solution C: S-methoprene and BHT (in a weight ratio of 50:1), dissolved in a mixture of 1-methoxy-2-propanol and Belmay B-5 Fragrance (in a weight ratio of 44:56) to achieve a solution of 5% S-methoprene by weight.
As the infested target, circular pieces of carpet were used. Each piece was 7.6 cm (3 inches) in diameter cut from a 1.3-cm (0.5-inch) pile nylon carpet, and individual circles were placed at distances of 0.61 m (2 ft), 3.0 m (10 ft), and 6.1 m (20 ft) from the light bulb.
The felt ring in each experiment was wetted with 2 g of solution. […] The bulb was turned on for periods of time ranging from 4 h to 120 h. This is referred to below as the “Activation Time.” The temperature of the bulb surface at the location of the felt ring was approximately 215° F. (102° C.). In some of the tests, a horizontal barrier was placed above the carpet circles at distances of 5.1 cm (2 inches) or 7.6 cm (3 inches), to simulate penetration of the S-methoprene to difficult-to-reach places such as under furniture. The carpet circles were placed in two positions below the barrier—one in which the center of the carpet circle was 30 cm (12 inches) from the edge of the barrier (identified below as “Position 1”), and the other in which the center of the carpet circle was 7.6 cm (3 inches) from the edge of the barrier (identified below as “Position 2”).
After these exposures, the carpet circles were removed from the room, and sprinkled with flea rearing media and infested with 100 viable flea eggs. Similar carpet circles that had not undergone exposure to the volatilized S-methoprene were similarly sprinkled and infested. The exposed (test) and unexposed (control) carpet circles were then placed in a warm (27° C., 80° F.), high humidity (80% relative humidity) room for 35 days to allow any viable flea eggs in the circles to develop to adult fleas. In some of the tests, the carpet circles were allowed to rest for 35 days after removal from the treatment room before being infested with the flea eggs, to test for residual efficacy. In all cases, efficacy was determined by comparing the results from test circles to those from the control circles.

fleas [3] = assay: Flea control on carpet circles by S-methoprene volatilized by a plug-in heater; assay type: in vivo, Ctenocephalides felis; conditions: for Adult Flea Emergence (From 100 Eggs), Individual Tests: 0.1 g, room 78.4 m^3, activation time 4 h, three carpet circles; for Emax: Ctenocephalides felis
Experimental: This example illustrates the efficacy of S-methoprene volatilized by a plug-in heater designed for use with mosquito repellents. The heater was an AgRevo heater, 110-120v, 50-60 Hz, 5 watts, purchased from DBK Espana Household Technologies, and the tests were performed in the same test room used for Example 1, adjusted to a floor area of 18.6 m^2 (200 ft^2), resulting in a room volume of 78.4 m^3 (2,800 ft^3). The S-methoprene was placed in the heater by wetting a Whatman filter pad consisting of 50% cellulose and 50% glass fiber, the wetting solution consisting of 8.8% (by weight) S-methoprene in neat 1-methoxy 2-propanol. The amount of solution used was 1.2 g, resulting in 0.1 g of S-methoprene in the pad. Carpet circles were used as in the preceding examples, and all other procedures were the same as those in Example 1. Carpet circles were placed at distances of 0.61 m (2 ft), 3.0 m (10 ft), and 6.1 m (20 ft) from the plug-in-heater, with three carpet circles at each location. Three additional carpet circles were retained outside the room to avoid exposure to the volatilized S-methoprene for use as controls. The activation time for the test circles was four hours. Efficacy was determined by comparing the results from the test circles to those from the control circles.

[4] = 0.1 g, room 78.4 m^3, activation time 4 h, carpet centre 7.6 cm from barrier edge, 3.0 m
[5] = 0.1 g, room 78.4 m^3, activation time 4 h, carpet centre 30 cm from barrier edge, 3.0 m

## COC(C)(C)CCC[C@H](C)C/C=C/C(C)=C/C(=O)OC(C)C [S-methoprene, (E,E)-(7S)-11-methoxy-3,7,11-trimethyldodeca-2,4-dienoate, isopropyl ester]
Fleas [1]; 1 month after treatment
  Number of Adult Fleas Emerging From 100 Eggs, Mean (Arithmetic), test samples: 2.8
  Number of Adult Fleas Emerging From 100 Eggs, Mean (Geometric), test samples: 2.7
  Number of Adult Fleas Emerging From 100 Eggs, individual test samples: 3 (2×) and 2 (3×) and 5
  Percent Control (Arithmetic): 95.6%
  Percent Control (Geometric): 95.8%
Fleas [1]; 2 months after treatment
  Number of Adult Fleas Emerging From 100 Eggs, Mean (Arithmetic), test samples: 3.2
  Number of Adult Fleas Emerging From 100 Eggs, Mean (Geometric), test samples: 1.9
  Number of Adult Fleas Emerging From 100 Eggs, individual test samples: 5 and 2 (2×) and 0 and 4 and 6
  Percent Control (Arithmetic): 95.5%
  Percent Control (Geometric): 97.3%
Fleas [1]; 3 months after treatment
  Number of Adult Fleas Emerging From 100 Eggs, Mean (Arithmetic), test samples: 3.7
  Number of Adult Fleas Emerging From 100 Eggs, Mean (Geometric), test samples: 0.7
  Number of Adult Fleas Emerging From 100 Eggs, individual test samples: 1 and 0 (3×) and 5 and 16
  Percent Control (Arithmetic): 94.0%
  Percent Control (Geometric): 98.9%
Fleas [1]; 4 months after treatment
  Number of Adult Fleas Emerging From 100 Eggs, Mean (Arithmetic), test samples: 4.0
  Number of Adult Fleas Emerging From 100 Eggs, Mean (Geometric), test samples: 3.0
  Number of Adult Fleas Emerging From 100 Eggs, individual test samples: 1 (2×) and 8 and 4 (2×) and 6
  Percent Control (Arithmetic): 94.3%
  Percent Control (Geometric): 95.7%
Fleas [1]; all cases, 1-4 months after treatment
  Flea control, result in words: excellent control was achieved in all cases
Fleas [1]; carpet circles aged after exposure
  Persistence of the treatment: persistent for up to four months
[2]; [4]
  Efficacy Under 2-in. Overhead Barrier, Position 2: Position 2: 96%
  Efficacy Under 3-in. Overhead Barrier, Position 2: Position 2: 100%
[2]; [5]
  Efficacy Under 2-in. Overhead Barrier, Position 1: Position 1: 99%
  Efficacy Under 3-in. Overhead Barrier, Position 1: Position 1: 100%
[2]; 0.1 g, room 78.4 m^3, activation time 24 h, 0.61 m from source
  Efficacy at Indicated Distance from Source: 99%
[2]; 0.1 g, room 78.4 m^3, activation time 24 h, 0.61 m
  Efficacy at Indicated Distance from Source, 35-Day Residual Effect: 96%
[2]; 0.1 g, room 78.4 m^3, activation time 24 h, 3.0 m from source
  Efficacy at Indicated Distance from Source: 99%
[2]; 0.1 g, room 78.4 m^3, activation time 24 h, 3.0 m
  Efficacy at Indicated Distance from Source, 35-Day Residual Effect: 96%
[2]; 0.1 g, room 78.4 m^3, activation time 24 h, 6.1 m from source
  Efficacy at Indicated Distance from Source: 99%
[2]; 0.1 g, room 78.4 m^3, activation time 24 h, 6.1 m
  Efficacy at Indicated Distance from Source, 35-Day Residual Effect: 97%
[2]; 0.1 g, room 117.6 m^3, activation time 4 h, 0.61 m from source
  Efficacy at Indicated Distance from Source: 100%
[2]; 0.1 g, room 117.6 m^3, activation time 4 h, 3.0 m from source
  Efficacy at Indicated Distance from Source: 99.4%
[2]; 0.1 g, room 117.6 m^3, activation time 4 h, 6.1 m from source
  Efficacy at Indicated Distance from Source: 99.4%
[2]; 0.1 g, room 186.8 m^3, activation time 4 h, 0.61 m from source
  Efficacy at Indicated Distance from Source: 100%
[2]; 0.1 g, room 186.8 m^3, activation time 4 h, 3.0 m from source
  Efficacy at Indicated Distance from Source: 99.6%
[2]; 0.1 g, room 186.8 m^3, activation time 4 h, 6.1 m from source
  Efficacy at Indicated Distance from Source: 100%
[2]; 0.1 g, room 196 m^3, activation time 4 h, 0.61 m from source
  Efficacy at Indicated Distance from Source: 95%
[2]; 0.1 g, room 196 m^3, activation time 4 h, 3.0 m from source
  Efficacy at Indicated Distance from Source: 97.3%
[2]; 0.1 g, room 196 m^3, activation time 4 h, 6.1 m from source
  Efficacy at Indicated Distance from Source: 96.5%
[2]; 1.8 g S-methoprene volatilized, room 78.4 m^3, activation time 120 h, 0.61 m from source
  Efficacy at Indicated Distance from Source: 100%
[2]; 1.8 g S-methoprene volatilized, room 78.4 m^3, activation time 120 h, 3.0 m from source
  Efficacy at Indicated Distance from Source: 100%
[2]; 1.8 g S-methoprene volatilized, room 78.4 m^3, activation time 120 h, 6.1 m from source
  Efficacy at Indicated Distance from Source: 100%
[2]; all cases, including lower dosage rate, 35-day residual effect, overhead barrier
  Flea control, result in words: excellent control was achieved in all cases
Fleas [3]; 0.61 m from heater
  Adult Flea Emergence (From 100 Eggs), Average: 1
  Adult Flea Emergence (From 100 Eggs), Individual Tests: 0/1/2
Fleas [3]; 3.0 m from heater
  Adult Flea Emergence (From 100 Eggs), Average: 0.3
  Adult Flea Emergence (From 100 Eggs), Individual Tests: 1/0/0
Fleas [3]; 6.1 m from heater
  Adult Flea Emergence (From 100 Eggs), Average: 0.3
  Adult Flea Emergence (From 100 Eggs), Individual Tests: 1/0/0
Fleas [3]; 0.61 m from heater, read-out: % Efficacy (Relative to Control)
  Emax: 92.7%
Fleas [3]; 3.0 m from heater, read-out: % Efficacy (Relative to Control)
  Emax: 97.8%
Fleas [3]; 6.1 m from heater, read-out: % Efficacy (Relative to Control)
  Emax: 97.8%
Fleas [3]; all distances from heater, read-out: % Efficacy (Relative to Control), Overall
  Emax: 96.1%
Fleas [3]; all distances from the plug-in heater
  Flea control, result in words: excellent control at all distances
